From ChEMBL document CHEMBL4483862, “Open-source discovery of chemical leads for next-generation chemoprotective antimalarials” (2018)

System: Plasmodium berghei
Experiment: Luciferase/luciferin-expressing antifolate-resistant parasites were used to infect a culture of HepG2 cells that were pre-incubated with compounds. Infected hepatocytes emit light due to the luciferase reaction. Assay results are presented as the percent inhibition of light emission compared to control. […]
Format: functional
Details: sporozoite; for IC90: read-out: LUCIFERASE INFECTION ASSAY - IC90

| SMILES | IC90 [µM] | further results |
| --- | --- | --- |
| NS(=O)(=O)c1ccc(CCNCC(=O)N2CCC(Cc3ccccc3)CC2)cc1 | > 10 | IC50 (HEPG2TOX_HILL_SLOPE 10, HEPG2TOX_R_SQUARED 0.966, PBLUC_HILL_SLOPE 4.42, PBLUC_R_SQUARED 0.274, read-out: LUCIFERASE INFECTION ASSAY - IC50): 7.8 µM |
| Cn1c(NCc2ccccc2F)nc2cnc(-c3ccc4c(c3)OCO4)cc21 | 5.21 | IC50 (HEPG2TOX_HILL_SLOPE 10, HEPG2TOX_R_SQUARED 0.935, PBLUC_HILL_SLOPE 10.5, PBLUC_R_SQUARED 0.0559, read-out: LUCIFERASE INFECTION ASSAY - IC50): 4.23 µM |
| CCOc1ccc(-c2nc(CSc3nnc(-c4ccccc4OC)n3CC)cs2)cc1 | > 10 | IC50 (HEPG2TOX_HILL_SLOPE 10.1, HEPG2TOX_R_SQUARED 0.28, PBLUC_HILL_SLOPE 16.2, PBLUC_R_SQUARED 0.242, read-out: LUCIFERASE INFECTION ASSAY - IC50): 9.09 µM |
| CC1CCN(C(=O)COc2ccc(C(C)C)cc2Br)CC1 | 8.51 | IC50 (HEPG2TOX_HILL_SLOPE 9.85, HEPG2TOX_R_SQUARED 0.75, PBLUC_HILL_SLOPE 15.1, PBLUC_R_SQUARED 0.202, read-out: LUCIFERASE INFECTION ASSAY - IC50): 7.36 µM |
| CCn1ccnc1C(=O)Nc1nc(-c2ccc3c(c2)OCCO3)cs1 | 1.92 | IC50 (HEPG2TOX_HILL_SLOPE 10.1, HEPG2TOX_R_SQUARED 0.135, PBLUC_HILL_SLOPE 182, PBLUC_R_SQUARED 0.438, read-out: LUCIFERASE INFECTION ASSAY - IC50): 1.89 µM |
| O=C(Nc1nc2ccccc2[nH]1)c1ccc(Cl)c(S(=O)(=O)N2CCc3ccccc32)c1 | > 10 | IC50 (HEPG2TOX_HILL_SLOPE 9.78, HEPG2TOX_R_SQUARED 0.833, PBLUC_HILL_SLOPE 14, PBLUC_R_SQUARED 0.17, read-out: LUCIFERASE INFECTION ASSAY - IC50): 8.7 µM |
| FC(F)(F)Oc1ccc(Nc2cc3[nH]c(-c4ccccn4)cc3cn2)cc1 | 5.04 | IC50 (HEPG2TOX_HILL_SLOPE 10.1, HEPG2TOX_R_SQUARED 0.985, PBLUC_HILL_SLOPE 7.97, PBLUC_R_SQUARED 0.35, read-out: LUCIFERASE INFECTION ASSAY - IC50): 3.82 µM |
| COc1ccc(N2CCN(c3nc(Nc4cc(C)nn4-c4ccccc4)c(Cl)cc3Cl)CC2)cc1 | > 10 | IC50 (HEPG2TOX_HILL_SLOPE 10.1, 8.63, HEPG2TOX_R_SQUARED 0.279, 0.753, PBLUC_HILL_SLOPE 15.1, PBLUC_R_SQUARED 0.229, read-out: LUCIFERASE INFECTION ASSAY - IC50): 9.89 µM |
| NC(Cc1ccc(F)cc1)c1csc(NC(=O)Nc2ccc(OC(F)(F)F)cc2)n1 (configuration not stated) | 5.69 | IC50 (HEPG2TOX_HILL_SLOPE 9.82, HEPG2TOX_R_SQUARED 0.883, PBLUC_HILL_SLOPE 24.7, PBLUC_R_SQUARED 0.388, read-out: LUCIFERASE INFECTION ASSAY - IC50): 5.2 µM |
| Cc1ccc(-c2nonc2NC(=O)c2sc3ccccc3c2Cl)cc1 | 6.55 | IC50 (HEPG2TOX_HILL_SLOPE 10.3, HEPG2TOX_R_SQUARED 0.121, PBLUC_HILL_SLOPE 5.87, PBLUC_R_SQUARED 0.389, read-out: LUCIFERASE INFECTION ASSAY - IC50): 4.5 µM |
| COc1ccc(CNCC(O)COc2ccc(C(C)(C)C)cc2C)cc1OC (configuration not stated) | 10 | IC50 (HEPG2TOX_HILL_SLOPE 9.88, HEPG2TOX_R_SQUARED 0.866, PBLUC_HILL_SLOPE 15, PBLUC_R_SQUARED 0.0695, read-out: LUCIFERASE INFECTION ASSAY - IC50): 8.63 µM |
| COc1ccc(C(NS(=O)(=O)c2ccc(-n3ncc(Cl)c(Cl)c3=O)cc2)C(C)C)cc1 (configuration not stated) | 2.38 | IC50 (HEPG2TOX_HILL_SLOPE 9.92, HEPG2TOX_R_SQUARED 0.979, PBLUC_HILL_SLOPE 3.67, PBLUC_R_SQUARED 0.728, read-out: LUCIFERASE INFECTION ASSAY - IC50): 1.31 µM |
| COc1ccc(OC)c(Cn2cc(Br)ccc2=O)c1 | > 10 | IC50 (HEPG2TOX_HILL_SLOPE 10.1, HEPG2TOX_R_SQUARED 0.0663, read-out: LUCIFERASE INFECTION ASSAY - IC50): > 10 µM |
| O=C(CCN1CCN(c2ccccc2)CC1)N/N=C/c1cc(Br)ccc1O | > 10 | IC50 (HEPG2TOX_HILL_SLOPE 9.92, HEPG2TOX_R_SQUARED 0.702, PBLUC_HILL_SLOPE 4.41, PBLUC_R_SQUARED 0.46, read-out: LUCIFERASE INFECTION ASSAY - IC50): 6.08 µM |
| O=C(/C=C/c1ccc(Cl)c([N+](=O)[O-])c1)c1ccc(NC2=NCCCS2)cc1 | 9.95 | IC50 (HEPG2TOX_HILL_SLOPE 9.82, HEPG2TOX_R_SQUARED 0.995, PBLUC_HILL_SLOPE 5.88, PBLUC_R_SQUARED 0.401, read-out: LUCIFERASE INFECTION ASSAY - IC50): 6.85 µM |
| COc1ncccc1C(=O)Nc1ccccc1Cl | > 12.6 | IC50 (HEPG2TOX_HILL_SLOPE 9.95, HEPG2TOX_R_SQUARED 0.955, PBLUC_HILL_SLOPE 2.98, PBLUC_R_SQUARED 0.38, read-out: LUCIFERASE INFECTION ASSAY - IC50): 12.2 µM |

| SMILES | IC90 [µM] | further results |
| --- | --- | --- |
| Cn1c(NCc2ccccc2)nc2cnc(-c3ccc4ccccc4c3)cc21 | 9.43 | IC50 (HEPG2TOX_HILL_SLOPE 9.86, HEPG2TOX_R_SQUARED 0.539, PBLUC_HILL_SLOPE 12.2, PBLUC_R_SQUARED 0.511, read-out: LUCIFERASE INFECTION ASSAY - IC50): 7.88 µM |
| C=C(CS(=O)(=O)c1ccccc1)C(=O)Nc1ccc(C(F)(F)F)cc1 | 7.91 | IC50 (HEPG2TOX_HILL_SLOPE 10, HEPG2TOX_R_SQUARED 0.961, PBLUC_HILL_SLOPE 2.89, PBLUC_R_SQUARED 0.554, read-out: LUCIFERASE INFECTION ASSAY - IC50): 3.7 µM |
| CSc1sc(C(=O)NC(=O)Nc2ccccc2Cl)c2c1-c1nocc1CC2 | > 7.86 | IC50 (HEPG2TOX_HILL_SLOPE 9.91, HEPG2TOX_R_SQUARED 0.105, read-out: LUCIFERASE INFECTION ASSAY - IC50): > 7.86 µM |
| O=c1c2ccccc2nc(SCc2cn3cc(Br)ccc3n2)n1-c1ccccc1F | 3.99 | IC50 (HEPG2TOX_HILL_SLOPE 9.92, HEPG2TOX_R_SQUARED 0.174, PBLUC_HILL_SLOPE 13.7, PBLUC_R_SQUARED 0.208, read-out: LUCIFERASE INFECTION ASSAY - IC50): 3.4 µM |
| Cc1nnnn1/C(=C\c1ccccc1)C(=O)N1CCCC1c1nc2ccccc2s1 (configuration not stated) | > 10 | IC50 (HEPG2TOX_HILL_SLOPE 10.1, HEPG2TOX_R_SQUARED 0.585, PBLUC_HILL_SLOPE 18.2, PBLUC_R_SQUARED 0.211, read-out: LUCIFERASE INFECTION ASSAY - IC50): 9.46 µM |
| O=C(Nc1nonc1-c1ccc(F)cc1)c1ccc(Br)cc1 | 3.92 | IC50 (HEPG2TOX_HILL_SLOPE 9.79, HEPG2TOX_R_SQUARED 0.939, PBLUC_HILL_SLOPE 11.2, PBLUC_R_SQUARED 0.415, read-out: LUCIFERASE INFECTION ASSAY - IC50): 3.22 µM |
| COc1cc(CNCCCN(C)C)cc(Cl)c1OCc1ccc(F)cc1 | > 8.66 | IC50 (HEPG2TOX_HILL_SLOPE 10.1, HEPG2TOX_R_SQUARED 0.531, PBLUC_HILL_SLOPE 2.5, PBLUC_R_SQUARED 0.598, read-out: LUCIFERASE INFECTION ASSAY - IC50): 5.14 µM |
| Oc1ccc(Br)cc1/C=C/c1ccc2cccc(O)c2n1 | > 9.64 | IC50 (HEPG2TOX_HILL_SLOPE 9.84, HEPG2TOX_R_SQUARED 0.0138, PBLUC_HILL_SLOPE 10.3, PBLUC_R_SQUARED 0.574, read-out: LUCIFERASE INFECTION ASSAY - IC50): 8.32 µM |
| CN(C)CCCOc1ccc(-c2cn3c(-c4ccc5ncccc5c4)cnc3cn2)cn1 | 7.35 | IC50 (HEPG2TOX_HILL_SLOPE 9.84, HEPG2TOX_R_SQUARED 0.59, PBLUC_HILL_SLOPE 45.1, PBLUC_R_SQUARED 0.189, read-out: LUCIFERASE INFECTION ASSAY - IC50): 7 µM |
| CCOc1ccc(C(C)NC(=O)C(=O)c2c(C)nn(-c3ccccc3)c2C)cc1 (configuration not stated) | 9.94 | IC50 (HEPG2TOX_HILL_SLOPE 9.83, HEPG2TOX_R_SQUARED 0.28, PBLUC_HILL_SLOPE 22.8, PBLUC_R_SQUARED 0.679, read-out: LUCIFERASE INFECTION ASSAY - IC50): 9.03 µM |
| CCCn1c(NC(=O)c2ccc(S(=O)(=O)N3CC(C)OC(C)C3)cc2)nc2ccccc21 (configuration not stated) | 5.08 | IC50 (HEPG2TOX_HILL_SLOPE 9.83, HEPG2TOX_R_SQUARED 0.869, PBLUC_HILL_SLOPE 10.1, PBLUC_R_SQUARED 0.696, read-out: LUCIFERASE INFECTION ASSAY - IC50): 4.09 µM |
| O=C(c1c[nH]c2ccccc12)N1CCN(c2nsc3ccccc23)CC1 | 3.82 | IC50 (HEPG2TOX_HILL_SLOPE 9.85, HEPG2TOX_R_SQUARED 0.824, PBLUC_HILL_SLOPE 13.5, PBLUC_R_SQUARED 0.79, read-out: LUCIFERASE INFECTION ASSAY - IC50): 3.25 µM |
| COC(=O)c1c(NC(=O)c2ccco2)c2cc(NC(C)Cc3ccccc3OC)cnc2n1C (configuration not stated) | > 7.14 | IC50 (HEPG2TOX_HILL_SLOPE 9.88, HEPG2TOX_R_SQUARED 0.405, PBLUC_HILL_SLOPE 3.37, PBLUC_R_SQUARED 0.677, read-out: LUCIFERASE INFECTION ASSAY - IC50): 4.39 µM |
| N#Cc1ccc(C#CCOC(=O)c2ccc(Cl)cc2)cc1 | > 11.2 | IC50 (HEPG2TOX_HILL_SLOPE 9.79, HEPG2TOX_R_SQUARED 0.928, PBLUC_HILL_SLOPE 1.7, PBLUC_R_SQUARED 0.764, read-out: LUCIFERASE INFECTION ASSAY - IC50): 3.56 µM |
| Cc1ccn2cc(C(=O)Nc3nnc(CC(C)C)s3)nc2c1 | 3.7 | IC50 (HEPG2TOX_HILL_SLOPE 9.95, HEPG2TOX_R_SQUARED 0.674, PBLUC_HILL_SLOPE 11.8, PBLUC_R_SQUARED 0.71, read-out: LUCIFERASE INFECTION ASSAY - IC50): 3.07 µM |
